ChEMBL document CHEMBL3044666, “Synthesis, biological evaluation and molecular modeling studies of Schiff bases derived from 4-methylsalicylic acid as potential immunosuppressive agents” (Med Chem Res, 2013)

Columns and labels:
[1] = Immunosuppressive activity in BALB/C Mus musculus (mouse) lymph node cells assessed as inhibition of conA-induced proliferation incubated at 24 hr post conA-challenge measured after 72 hr by MTT assay; assay type: functional
[2] = Cytotoxicity against BALB/C Mus musculus (mouse) lymph node cells after 24 hr by MTT assay; assay type: cell-based
[3] = Selectivity index, ratio of CC50 for BALB/C Mus musculus (mouse) lymph node cells to IC50 for conA-induced BALB/C lymph node cells; assay type: functional
[4] = target: Phosphatidylinositol 4,5-bisphosphate 3-kinase catalytic subunit gamma isoform (Homo sapiens, UniProt P48736); test: Inhibition of PI3Kgamma (unknown origin) using [33gammaP]ATP and phosphotidylinositol as substrate by scintillation proximity assay
Chain of Phosphatidylinositol 4,5-bisphosphate 3-kinase catalytic subunit gamma isoform (P48736 whole entry, canonical isoform): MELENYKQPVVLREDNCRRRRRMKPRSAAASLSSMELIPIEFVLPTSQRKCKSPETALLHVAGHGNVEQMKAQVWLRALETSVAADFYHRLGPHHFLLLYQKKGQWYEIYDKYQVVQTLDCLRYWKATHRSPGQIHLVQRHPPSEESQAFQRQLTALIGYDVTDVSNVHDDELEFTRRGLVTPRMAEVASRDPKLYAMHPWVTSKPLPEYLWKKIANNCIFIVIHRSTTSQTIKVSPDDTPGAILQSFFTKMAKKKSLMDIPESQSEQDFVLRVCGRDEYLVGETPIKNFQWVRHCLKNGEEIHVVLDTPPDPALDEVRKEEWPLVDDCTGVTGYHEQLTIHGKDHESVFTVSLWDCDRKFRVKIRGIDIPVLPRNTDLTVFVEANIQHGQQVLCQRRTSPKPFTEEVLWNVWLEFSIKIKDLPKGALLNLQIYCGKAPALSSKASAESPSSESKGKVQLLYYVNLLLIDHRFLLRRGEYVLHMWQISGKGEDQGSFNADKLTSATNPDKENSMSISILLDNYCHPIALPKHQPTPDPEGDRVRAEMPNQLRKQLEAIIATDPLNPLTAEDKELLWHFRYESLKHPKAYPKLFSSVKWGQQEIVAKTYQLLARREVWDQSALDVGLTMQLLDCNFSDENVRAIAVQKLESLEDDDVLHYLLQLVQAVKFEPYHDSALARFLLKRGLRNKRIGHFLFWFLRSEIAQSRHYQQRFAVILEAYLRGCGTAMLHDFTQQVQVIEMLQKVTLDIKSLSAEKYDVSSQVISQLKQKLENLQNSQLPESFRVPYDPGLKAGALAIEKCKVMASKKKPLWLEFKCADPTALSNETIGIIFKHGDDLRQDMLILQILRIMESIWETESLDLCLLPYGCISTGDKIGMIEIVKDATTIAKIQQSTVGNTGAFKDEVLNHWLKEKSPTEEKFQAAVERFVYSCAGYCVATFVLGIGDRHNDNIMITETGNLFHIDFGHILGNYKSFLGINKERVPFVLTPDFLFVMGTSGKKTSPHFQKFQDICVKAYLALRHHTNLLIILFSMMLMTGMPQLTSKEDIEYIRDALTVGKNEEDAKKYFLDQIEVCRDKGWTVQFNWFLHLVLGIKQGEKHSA

Mus musculus [5] = organism: Mus musculus; test: Induction of apoptosis in ConA-induced BALB/C Mus musculus (mouse) lymph node cells after 24 hr by AnnexinV-FITC based flow cytometric analysis; assay type: functional
[6] = target: Phosphatidylinositol 4,5-bisphosphate 3-kinase catalytic subunit gamma isoform (Mus musculus) (UniProt Q9JHG7); test: Inhibition of PI3Kgamma-mediated AKT Ser473 phosphorylation in ConA-induced BALB/C Mus musculus (mouse) lymph node cells after 24 hr by Western blot analysis
Chain of Phosphatidylinositol 4,5-bisphosphate 3-kinase catalytic subunit gamma isoform (Mus musculus) (Q9JHG7 whole entry, looked up, canonical isoform): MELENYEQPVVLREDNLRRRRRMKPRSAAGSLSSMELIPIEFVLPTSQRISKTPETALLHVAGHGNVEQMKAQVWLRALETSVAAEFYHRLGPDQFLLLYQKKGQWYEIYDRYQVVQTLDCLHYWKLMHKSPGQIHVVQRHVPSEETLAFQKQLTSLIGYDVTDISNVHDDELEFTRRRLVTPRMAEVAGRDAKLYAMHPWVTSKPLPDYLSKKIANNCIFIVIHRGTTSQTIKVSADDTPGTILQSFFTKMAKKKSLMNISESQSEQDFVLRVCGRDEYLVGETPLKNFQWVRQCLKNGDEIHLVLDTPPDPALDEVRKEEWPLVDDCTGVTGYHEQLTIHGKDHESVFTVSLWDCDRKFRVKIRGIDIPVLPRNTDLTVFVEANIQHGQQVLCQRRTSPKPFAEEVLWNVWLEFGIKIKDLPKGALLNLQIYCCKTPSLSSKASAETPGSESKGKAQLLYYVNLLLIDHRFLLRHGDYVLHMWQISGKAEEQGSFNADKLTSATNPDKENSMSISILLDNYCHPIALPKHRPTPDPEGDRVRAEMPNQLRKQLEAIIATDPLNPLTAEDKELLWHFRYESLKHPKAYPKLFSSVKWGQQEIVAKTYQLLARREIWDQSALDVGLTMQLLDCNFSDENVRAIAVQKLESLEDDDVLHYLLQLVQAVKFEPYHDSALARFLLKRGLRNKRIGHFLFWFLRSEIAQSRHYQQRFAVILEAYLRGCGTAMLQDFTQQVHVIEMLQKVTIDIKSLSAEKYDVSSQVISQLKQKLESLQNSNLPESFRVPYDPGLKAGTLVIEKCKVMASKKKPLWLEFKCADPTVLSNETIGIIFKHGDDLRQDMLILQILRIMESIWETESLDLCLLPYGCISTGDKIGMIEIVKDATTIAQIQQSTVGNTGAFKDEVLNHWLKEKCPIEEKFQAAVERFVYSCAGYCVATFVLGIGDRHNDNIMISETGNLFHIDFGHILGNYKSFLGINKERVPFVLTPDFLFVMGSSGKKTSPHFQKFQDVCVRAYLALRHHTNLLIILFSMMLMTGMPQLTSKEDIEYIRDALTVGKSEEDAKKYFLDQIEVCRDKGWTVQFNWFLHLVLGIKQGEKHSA

[7] = Ratio of CsA CC50 to compound CC50 for BALB/C Mus musculus (mouse) lymph node cells; assay type: ADME
Mus musculus [8] = organism: Mus musculus; test: Induction of apoptosis in ConA-induced BALB/C Mus musculus (mouse) lymph node cells assessed as caspase3 activation after 24 hr by Western blot analysis; assay type: functional

Compound | IC50 [1] [µM] | CC50 at 24 h [2] [µM] | Ratio CC50/IC50 [3] | IC50 [4] [µM] | Activity (Mus musculus [5]) | inhibition [6] | selectivity ratio [7] | Activity (Mus musculus [8])
Cc1ccc(C(=O)N/N=C/c2ccc([N+](=O)[O-])cc2)c(O)c1 | 24.3 | 734 | 30.23 |  |  |  |  | 
Cc1ccc(C(=O)N/N=C/c2cccc(F)c2)c(O)c1 | 31.2 | 166 | 3.72 |  |  |  |  | 
Cc1ccc(C(=O)N/N=C/c2cc(Br)cc(Br)c2O)c(O)c1 | 2.02 | 979 | 484.63 | 7.12 |  |  |  | 
Cc1ccc(C(=O)N/N=C/c2cccc(Cl)c2)c(O)c1 | 24.4 | 636 | 30.89 |  |  |  |  | 
COc1cccc(/C=N/NC(=O)c2ccc(C)cc2O)c1 | 20.6 | 672 | 32.64 |  |  |  |  | 
Cc1ccc(C(=O)N/N=C/c2ccc(Cl)cc2Cl)c(O)c1 | 9.78 | 291 | 29.79 |  |  |  |  | 
Cc1ccc(C(=O)N/N=C/c2ccccc2Cl)c(O)c1 | 19.2 | 125 | 6.51 |  |  |  |  | 
Cc1ccc(C(=O)N/N=C/c2cc(Br)ccc2O)c(O)c1 | 1.09 | 1500 | 1371.95 | 2.6 |  |  |  | 
Cc1ccc(C(=O)N/N=C/c2ccc(Cl)cc2)c(O)c1 | 12.3 | 116 | 9.45 |  |  |  |  | 
Cc1ccc(C(=O)N/N=C/c2ccccc2)c(O)c1 | 53.9 | 578 | 10.74 |  |  |  |  | 
Cc1ccc(C(=O)N/N=C/c2cc(Cl)cc(Cl)c2O)c(O)c1 | 1.51 | 708 | 468.72 | 4.81 | Dose-dependent effect |  |  | 
Cc1ccc(C(=O)N/N=C/c2ccccc2O)c(O)c1 | 1.02 | 761 | 745.65 | 2.17 | Dose-dependent effect | Dose-dependent effect | 50 | Dose-dependent effect
COc1ccc(/C=N/NC(=O)c2ccc(C)cc2O)cc1 | > 100 | 723 | <7.23 |  |  |  |  | 
Cc1ccc(C(=O)N/N=C/c2ccccc2F)c(O)c1 | 42.1 | 362 | 8.61 |  |  |  |  | 
Cc1ccc(C(=O)N/N=C/c2ccc(N(C)C)cc2)c(O)c1 | > 100 | 732 | <7.32 |  |  |  |  | 
Cc1ccc(C(=O)N/N=C/c2cccc(Br)c2)c(O)c1 | 28.3 | 113 | 4.01 |  |  |  |  | 
Cc1ccc(C(=O)N/N=C/c2cc(Cl)ccc2O)c(O)c1 | 1.29 | 560 | 433.84 | 3.69 |  |  |  | 
Cc1ccc(C(=O)N/N=C/c2ccccc2[N+](=O)[O-])c(O)c1 | > 100 | 644 | <6.44 |  |  |  |  | 
Cc1ccc(C(=O)N/N=C/c2ccc(F)cc2)c(O)c1 | 26.7 | 568 | 21.26 |  |  |  |  | 
